# According to ChEMBL document CHEMBL4680273, “Teixobactin: A Paving Stone toward a New Class of Antibiotics?” (2020):
# Tested on: Staphylococcus aureus
# Assay: Antibacterial activity against Staphylococcus aureus SH1000 incubated for 24 hrs by CLSI-broth microdilution method
# Type: functional
# Conditions: not given
row,SMILES,MIC [µg/mL]
1,CCCCC1NC(=O)[C@H](CCCN/C(=N\C)NC)NC(=O)[C@H](C)NC(=O)[C@H](NC(=O)[C@H](CO)NC(=O)[C@@H](NC(=O)[C@H](NC(=O)[C@@H](CCC(N)=O)NC(=O)[C@H](CO)NC(=O)[C@@H](NC(=O)[C@@H](Cc2ccccc2)NC)[C@@H](C)CC)[C@@H](C)CC)[C@@H](C)CC)[C@H](C)OC1=O (stereo in doubt; 127),16

# Same assay, conditions: Staphylococcus aureus, SH1000, read-out: MIC
row,SMILES,MIC [µg/mL]
1,CC[C@H](C)[C@H](NC(=O)[C@@H](Cc1ccccc1)NC)C(=O)N[C@@H](CO)C(=O)N[C@H](CCC(N)=O)C(=O)N[C@@H](C(=O)N[C@H](C(=O)N[C@@H](CO)C(=O)N[C@H]1C(=O)N[C@@H](C)C(=O)N[C@@H](CCCNC(=N)N)C(=O)NC(CCCC(F)(F)F)C(=O)O[C@H]1C)[C@@H](C)CC)[C@@H](C)CC (some centres not stated),32
2,CCCCC1NC(=O)[C@H](CCCNC(=N)NC)NC(=O)[C@H](C)NC(=O)[C@H](NC(=O)[C@H](CO)NC(=O)[C@@H](NC(=O)[C@H](NC(=O)[C@@H](CCC(N)=O)NC(=O)[C@H](CO)NC(=O)[C@@H](NC(=O)[C@@H](Cc2ccccc2)NC)[C@@H](C)CC)[C@@H](C)CC)[C@@H](C)CC)[C@H](C)OC1=O (some centres not stated),4
3,CC[C@H](C)[C@H](NC(=O)[C@@H](Cc1ccccc1)NC)C(=O)N[C@@H](CO)C(=O)N[C@H](CCC(N)=O)C(=O)N[C@@H](C(=O)N[C@H](C(=O)N[C@@H](CO)C(=O)N[C@H]1C(=O)N[C@@H](C)C(=O)N[C@@H](CCCNC(=N)N)C(=O)N[C@@H](C)C(=O)O[C@H]1C)[C@@H](C)CC)[C@@H](C)CC,≥ 32
4,C=CCCC1NC(=O)[C@H](CCCNC(=N)N)NC(=O)[C@H](C)NC(=O)[C@H](NC(=O)[C@H](CO)NC(=O)[C@@H](NC(=O)[C@H](NC(=O)[C@@H](CCC(N)=O)NC(=O)[C@H](CO)NC(=O)[C@@H](NC(=O)[C@@H](Cc2ccccc2)NC)[C@@H](C)CC)[C@@H](C)CC)[C@@H](C)CC)[C@H](C)OC1=O (some centres not stated),32
5,CCCC1NC(=O)[C@H](CCCNC(=N)N)NC(=O)[C@H](C)NC(=O)[C@H](NC(=O)[C@H](CO)NC(=O)[C@@H](NC(=O)[C@H](NC(=O)[C@@H](CCC(N)=O)NC(=O)[C@H](CO)NC(=O)[C@@H](NC(=O)[C@@H](Cc2ccccc2)NC)[C@@H](C)CC)[C@@H](C)CC)[C@@H](C)CC)[C@H](C)OC1=O (some centres not stated),8
6,CCC1NC(=O)[C@H](CCCNC(=N)N)NC(=O)[C@H](C)NC(=O)[C@H](NC(=O)[C@H](CO)NC(=O)[C@@H](NC(=O)[C@H](NC(=O)[C@@H](CCC(N)=O)NC(=O)[C@H](CO)NC(=O)[C@@H](NC(=O)[C@@H](Cc2ccccc2)NC)[C@@H](C)CC)[C@@H](C)CC)[C@@H](C)CC)[C@H](C)OC1=O (some centres not stated),16
7,CCCCC1NC(=O)[C@H](CCCN/C(=N\C)NC)NC(=O)[C@H](C)NC(=O)[C@H](NC(=O)[C@H](CO)NC(=O)[C@@H](NC(=O)[C@H](NC(=O)[C@@H](CCC(N)=O)NC(=O)[C@H](CO)NC(=O)[C@@H](NC(=O)[C@@H](Cc2ccccc2)NC)[C@@H](C)CC)[C@@H](C)CC)[C@@H](C)CC)[C@H](C)OC1=O (stereo in doubt; 128),16

# Tested on: Staphylococcus aureus
# Assay: Antibacterial activity against Staphylococcus aureus ATCC 29213 incubated for 16 hrs by UV/Visible absorbance method
# Type: functional
# Conditions: not given
row,SMILES,MIC [µg/mL]
1,CC[C@H](C)[C@H](NC(=O)[C@@H](Cc1ccccc1)NC)C(=O)N[C@@H](CO)C(=O)N[C@H](CCC(N)=O)C(=O)N[C@@H](C(=O)N[C@H](C(=O)N[C@@H](CO)C(=O)N[C@H]1C(=O)N[C@@H](C)C(=O)N[C@@H](CCCNC(=N)N)CC(=O)N[C@@H]([C@@H](C)CC)CC(=O)O[C@H]1C)[C@@H](C)CC)[C@@H](C)CC,4
2,CC[C@H](C)[C@@H]1NC(=O)[C@H](CCCNC(=N)N)NC(=O)[C@H](C)NC(=O)[C@@H](NC(=O)[C@H](CO)NC(=O)[C@@H](NC(=O)[C@H](NC(=O)[C@@H](CCC(N)=O)NC(=O)[C@H](CO)NC(=O)[C@@H](NC(=O)[C@@H](Cc2ccccc2)NC)[C@@H](C)CC)[C@@H](C)CC)[C@@H](C)CC)[C@H](C)NC1=O,> 32
3,CC[C@H](C)[C@H](NC(=O)[C@@H](Cc1ccccc1)NC)C(=O)N[C@@H](CO)C(=O)N[C@H](CCC(N)=O)C(=O)N[C@@H](C(=O)N[C@H](C(=O)N[C@@H](CO)C(=O)N[C@H]1C(=O)N[C@@H](C)CC(=O)N[C@@H](CCCNC(=N)N)CC(=O)N[C@@H]([C@@H](C)CC)CC(=O)O[C@H]1C)[C@@H](C)CC)[C@@H](C)CC,16
4,CC[C@H](C)[C@H](NC(=O)[C@@H](Cc1ccccc1)NC)C(=O)N[C@@H](CO)C(=O)N[C@H](CCC(N)=O)C(=O)N[C@@H](C(=O)N[C@H](C(=O)N[C@@H](CO)C(=O)N[C@H]1C(=O)N[C@@H](C)CC(=O)N[C@@H](CCCNC(=N)N)CC(=O)N[C@@H]([C@@H](C)CC)C(=O)O[C@H]1C)[C@@H](C)CC)[C@@H](C)CC,> 32
5,CC[C@H](C)[C@H](NC(=O)[C@@H](Cc1ccccc1)NC)C(=O)N[C@@H](CO)C(=O)N[C@H](CCC(N)=O)C(=O)N[C@@H](C(=O)N[C@H](C(=O)N[C@@H](CO)C(=O)N[C@H]1C(=O)N[C@@H](C)C(=O)N[C@@H](CCCNC(=N)N)CC(=O)N[C@@H]([C@@H](C)CC)C(=O)O[C@H]1C)[C@@H](C)CC)[C@@H](C)CC,8
6,CC[C@H](C)[C@H](NC(=O)[C@@H](Cc1ccccc1)NC)C(=O)N[C@@H](CO)C(=O)N[C@H](CCC(N)=O)C(=O)N[C@@H](C(=O)N[C@H](C(=O)N[C@@H](CO)C(=O)N[C@H]1C(=O)N[C@@H](C)C(=O)N[C@@H](C)C(=O)N[C@@H]([C@@H](C)CC)C(=O)O[C@H]1C)[C@@H](C)CC)[C@@H](C)CC,1
7,CC[C@H](C)[C@H](NC(=O)[C@@H](Cc1ccccc1)NC)C(=O)N[C@@H](CO)C(=O)N[C@H](CCC(N)=O)C(=O)N[C@@H](C(=O)N[C@H](C(=O)N[C@@H](CO)C(=O)N[C@H]1C(=O)N[C@@H](C)CC(=O)N[C@@H](CCCNC(=N)N)C(=O)N[C@@H]([C@@H](C)CC)CC(=O)O[C@H]1C)[C@@H](C)CC)[C@@H](C)CC,32
8,CC[C@H](C)[C@H](NC(=O)[C@@H](Cc1ccccc1)NC)C(=O)N[C@@H](CO)C(=O)N[C@H](CCC(N)=O)C(=O)N[C@@H](C(=O)N(C)[C@H](C(=O)N[C@@H](CO)C(=O)N[C@H]1C(=O)N[C@@H](C)CC(=O)N[C@@H](CCCNC(=N)N)C(=O)N[C@@H]([C@@H](C)CC)C(=O)O[C@H]1C)[C@@H](C)CC)[C@@H](C)CC,32

# Continued, values first:
row,MIC [µg/mL],SMILES
1,> 32,CC[C@H](C)[C@@H]1NC(=O)[C@H](CCCNC(=N)N)NC(=O)[C@H](C)NC(=O)[C@H](NC(=O)[C@H](CO)NC(=O)[C@@H](NC(=O)[C@H](NC(=O)[C@@H](CCC(N)=O)NC(=O)[C@H](CO)NC(=O)[C@@H](NC(=O)[C@@H](Cc2ccccc2)NC)[C@@H](C)CC)[C@@H](C)CC)[C@@H](C)CC)[C@@H](C)NC1=O
2,4,CC[C@H](C)[C@H](NC(=O)[C@@H](Cc1ccccc1)NC)C(=O)N[C@@H](CO)C(=O)N[C@H](CCC(N)=O)C(=O)N[C@@H](C(=O)N[C@H](C(=O)N[C@@H](CO)C(=O)N[C@H]1C(=O)N[C@@H](C)C(=O)N[C@@H](CCCNC(=N)N)C(=O)N[C@@H]([C@@H](C)CC)CC(=O)O[C@H]1C)[C@@H](C)CC)[C@@H](C)CC
3,> 32,CC[C@H](C)[C@@H]1NC(=O)[C@H](CCCNC(=N)N)NC(=O)[C@H](C)NC(=O)[C@@H](NC(=O)[C@H](CO)NC(=O)[C@@H](NC(=O)[C@H](NC(=O)[C@@H](CCC(N)=O)NC(=O)[C@H](CO)NC(=O)[C@@H](NC(=O)[C@@H](Cc2ccccc2)NC)[C@@H](C)CC)[C@@H](C)CC)[C@@H](C)CC)[C@@H](C)NC1=O
4,1,CC[C@H](C)[C@@H]1NC(=O)[C@H](CCCNC(=N)N)NC(=O)[C@H](C)NC(=O)[C@H](NC(=O)[C@H](CO)NC(=O)[C@@H](NC(=O)[C@H](NC(=O)[C@@H](CCC(N)=O)NC(=O)[C@H](CO)NC(=O)[C@@H](NC(=O)[C@@H](Cc2ccccc2)NC)[C@@H](C)CC)[C@@H](C)CC)[C@@H](C)CC)[C@H](C)NC1=O

# Tested on: Staphylococcus aureus
# Assay: Antibacterial activity against methicillin resistant Staphylococcus aureus ATCC 33591 incubated for 24 hrs
# Type: functional
# Conditions: not given
row,SMILES,MIC [µg/mL]
1,CC[C@H](C)[C@H](NC(=O)[C@@H](Cc1ccccc1)NC)C(=O)N[C@@H](CO)C(=O)N[C@H](CCC(N)=O)C(=O)N[C@@H](C(=O)N[C@H](C(=O)N[C@@H](CO)C(=O)N[C@H]1C(=O)N[C@@H](C)C(=O)N[C@H](C)C(=O)N[C@@H]([C@@H](C)CC)C(=O)O[C@H]1C)[C@@H](C)CC)[C@@H](C)CC,32
2,CC[C@H](C)[C@H](NC(=O)[C@@H](Cc1ccccc1)NC)C(=O)N[C@@H](C)C(=O)N[C@H](CCC(N)=O)C(=O)N[C@@H](C(=O)N[C@H](C(=O)N[C@@H](CO)C(=O)N[C@H]1C(=O)N[C@@H](C)C(=O)N[C@@H](CCCNC(=N)N)C(=O)N[C@@H]([C@@H](C)CC)C(=O)O[C@H]1C)[C@@H](C)CC)[C@@H](C)CC,1
3,CC[C@H](C)[C@H](NC(=O)[C@@H](Cc1ccccc1)NC)C(=O)N[C@@H](CO)C(=O)N[C@H](C)C(=O)N[C@@H](C(=O)N[C@H](C(=O)N[C@@H](C)C(=O)N[C@H]1C(=O)N[C@@H](C)C(=O)N[C@@H](CCCNC(=N)N)C(=O)N[C@@H]([C@@H](C)CC)C(=O)O[C@H]1C)[C@@H](C)CC)[C@@H](C)CC,1
4,CC[C@H](C)[C@H](NC(=O)[C@@H](Cc1ccccc1)NC)C(=O)N[C@@H](CO)C(=O)N[C@H](CCC(N)=O)C(=O)N[C@@H](C(=O)N[C@H](C(=O)N[C@@H](CO)C(=O)N[C@H]1C(=O)N[C@@H](C)C(=O)N[C@@H](C)C(=O)N[C@@H]([C@@H](C)CC)C(=O)O[C@H]1C)[C@@H](C)CC)[C@@H](C)CC,1

# Tested on: Bacillus subtilis
# Assay: Antibacterial activity against Bacillus subtilis ATCC 6051 incubated for 16 hrs by UV/Visible absorbance method
# Type: functional
# Conditions: not given
row,SMILES,MIC [µg/mL]
1,CC[C@H](C)[C@H](NC(=O)[C@@H](Cc1ccccc1)NC)C(=O)N[C@@H](CO)C(=O)N[C@H](CCC(N)=O)C(=O)N[C@@H](C(=O)NC(C(=O)N[C@@H](CO)C(=O)N[C@H]1C(=O)N[C@@H](C)C(=O)N[C@@H](CCCNC(=N)N)C(=O)NC(C2CCCCC2)C(=O)O[C@H]1C)C1CCCCC1)[C@@H](C)CC (some centres not stated),1
2,CC[C@H](C)[C@H](NC(=O)[C@H](NC(=O)[C@@H](CCC(N)=O)NC(=O)[C@H](CO)NC(=O)[C@H](C)NC(=O)[C@@H](Cc1ccccc1)NC)[C@@H](C)CC)C(=O)N[C@@H](CO)C(=O)N[C@H]1C(=O)N[C@@H](C)C(=O)N[C@@H](CCCCN)C(=O)N[C@@H]([C@@H](C)CC)C(=O)O[C@H]1C,32
3,CC[C@H](C)[C@H](NC(=O)[C@@H](C)NC(=O)[C@@H](CCC(N)=O)NC(=O)[C@H](CO)NC(=O)[C@@H](NC(=O)[C@@H](Cc1ccccc1)NC)[C@@H](C)CC)C(=O)N[C@@H](CO)C(=O)N[C@H]1C(=O)N[C@@H](C)C(=O)N[C@@H](CCCCN)C(=O)N[C@@H]([C@@H](C)CC)C(=O)O[C@H]1C,16
